Source: patent US20050138675A1, “Method for determining cardiotoxicity” (Pfizer Inc., priority 2003, published 2005)

Tested on: cardiac ventricular tissue
Conditions: at least 2-fold relative to control
Source text: Male Sprague-Dawley rats weighing between 175-220 grams were used for all studies. Animals were purchased from Charles River Laboratories (Wilmington, Mass.) and allowed to acclimate for one week prior to use. All animals were given food and water ad libitum, and housed under a 12-hour light/12-hour dark cycle. The animals were housed in conventional plastic bottom cages (2 animals/cage) with corncob bedding. All dosing with test compounds was a single acute injection by the intraperitoneal route, in normal saline, with a 20×¾″ disposable needle attached to a 1 cc disposable syringe. These animals were euthanized by a 150 mg/kg intraperitoneal injection of Nembutal prior to collection of heart tissue.
Dose range-finding studies were completed to determine a xenobiotic dose that would produce signs of cardiotoxicity such as elevated serum troponins, creatine kinase isoenzymes, or histo-pathological tissue changes, without causing overt general toxicity. Comprehensive literature reviews were also used to select doses. […] Six or twenty-four hours later, animals were euthanized with a lethal intraperitoneal dose of Nembutal solution. Biopsy punches were used to remove approximately […] of ventricular tissue for subsequent RNA isolation and gene expression analysis. Total RNA was isolated from the samples using a Qiagen RNAeasy protocol (Valencia, Calif.). In this procedure, RNA is captured on a solid phase column, then washed with a series of solutions to purify the sample. In the last step, RNA is eluted from the column with RNAse free water. RNA quality and quantity was then checked with an optical density reading at 260/280 wavelengths, and an aliquot of RNA was run on an RNA denaturing gel. High quality RNA should have an OD 260/280 ratio of 2, and the denaturing gel should show two distinct ribosomal RNA bands.
Synthesis of double stranded cDNA from the total RNA isolated was the first step, which involves the incorporation of a T7-(dT)24 primer into the sequence, with subsequent second strand synthesis which yields a double stranded template for the in vitro transcription (IVT) reaction. The resulting cDNA was run in an IVT reaction using an Enzo BioArray High Yield RNA transcript labeling kit (Enzo Life Sciences, Inc. Farmingdale, N.Y.), during which a biotin label was incorporated into the complementary RNA (cRNA) sequence. This step also amplified the product by generating approximately 40 transcripts per cDNA substrate. After the IVT reaction, cRNA was fragmented by metallic fragmentation, and a small portion of the sample was run on a 1% agarose gel in order to visualize the fragmentation pattern. The range should be between 35 to 200 bases. Four samples from each group showing the highest purity and quality results were pooled for hybridization onto one Genechip to greatly reduce experimental costs. Genes of interest that are found through the use of GeneChip technology, will then be verified using real time PCR techniques on each individual sample.
Next, the cRNA was hybridized to the RG U34A GeneChip oligonucleotide array (Affymetrix Inc, Santa Clara, Calif.). An aliquot of the fragmented cRNA was mixed with control components, injected into the array, and the filled array was allowed to incubate at 45° C. for 16 hours in an Affymetrix oven, which rotates the samples continuously during incubation. The next morning, the array was taken from the oven and the sample was removed and frozen at −80° C. for possible future use. That is, in the event of a defective chip, the hybridization solution can be re-used. The array chamber was then filled with a wash buffer, and placed in an automated fluid exchange system. The fluidics station controls the washing and staining of the probe array with the fluorescently labeled streptavidin stain solution and an antibody solution. After the staining process was complete the chips were scanned by an Agilent GeneArray laser scanner (Agilent, Palo Alto, Calif.).

[1] = 6 hour after single i.p. dose (DIG 20, DOX 30, ISO 70, LPS 10 mg/kg)
[2] = 24 hour after single i.p. dose (DIG 20, DOX 30, ISO 70, LPS 10 mg/kg)

lipopolysaccharide [LPS]
AA957003 intercellular calcium-binding protein expression, up or down [1]: up
AI176456 metallothionein expression, up or down [1]: up
J02722 heme oxygenase (hsp32) expression, up or down [1]: up
X01118 gamma-rANP expression, up or down [1]: down
X89225 L-like neutral amino acid transport protein expression, up or down [1]: up
AA892801 EST expression, up or down [2]: up
AA899106 cyclin D2 expression, up or down [2]: down
AB005743 fatty acid transporter expression, up or down [2]: up
AF016296 neuropilin expression, up or down [2]: down
AI008852 EST expression, up or down [2]: up
AI170776 GRB2 expression, up or down [2]: up
AI638989 EST expression, up or down [2]: down
D85183 SHPS-1 expression, up or down [2]: up
M57276 leukocyte antigen MRC-OX44 expression, up or down [2]: up
U14950 synapse-associated protein 97 expression, up or down [2]: up
U68272 interferon gamma receptor expression, up or down [2]: up
X52140 integrin alpha-1 expression, up or down [2]: down
X71127 complement protein C1q beta chain expression, up or down [2]: up
